This note sets out measurements from patent publication US11351178B2, “Selective HDAC6 inhibitors” (ITALFARMACO S.P.A., priority 2017, dated 2022).

Usually IC50 stands for the concentration that inhibits the measured activity by half. The inhibition is the change of the read-out against control, counted positive when it falls.

Like-named read-outs stand apart in the source and are kept apart here.

One assay addresses T1, HDAC11 (Homo sapiens, UniProt Q96DB2).
T1 construct: purchased BML SE560
T1 sequence (Q96DB2 1-347): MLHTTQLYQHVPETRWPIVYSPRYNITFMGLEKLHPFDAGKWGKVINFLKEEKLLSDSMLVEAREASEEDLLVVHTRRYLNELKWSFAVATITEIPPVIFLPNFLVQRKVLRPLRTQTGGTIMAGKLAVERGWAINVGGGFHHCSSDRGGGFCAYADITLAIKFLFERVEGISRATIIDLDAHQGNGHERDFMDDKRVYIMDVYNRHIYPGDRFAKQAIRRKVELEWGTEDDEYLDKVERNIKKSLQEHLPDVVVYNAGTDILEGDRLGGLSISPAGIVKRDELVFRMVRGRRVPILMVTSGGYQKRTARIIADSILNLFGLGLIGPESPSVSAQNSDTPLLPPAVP
In words: Enzymatic test HDAC11. The format is biochemical. The note with it: Table 3. The procedure:
After a period of incubation at 30° C. (incubation times vary for different isoforms and are shown in table 1) 25 μL of solution containing the substrate were added. As substrate, FLUOR DE LYS® deacetylase substrate (Enzo Life Sciences, cat #BML-K1104, FdL), FLUOR DE LYS®-Green substrate (Enzo Life Sciences, cat #BML-K1572 FdL_G) and trifluoroacetyl-L-lysine (Tfal)-2× concentrated solution in 25 mM Tris-HCl, pH 8, 130 mM NaCl 0.05% Tween-20 10% glycerol) were used. Following a reaction period at 30° C.

Assay [1] has as its system regulatory T cell (Treg, CD4+CD25+) suppression activity. In words: T CD4 lymphocyte proliferation mediated by mouse regulatory T cells suppression assay. Format: cell-based. The procedure: To evaluate the ability of the molecules under this patent to increase regulatory T cell (Treg, CD4^+CD25^+) suppression activity a T-cell (responder T cells, Teff) proliferation suppression assay was used. Treg cells at different concentrations were cultured with Teff cells (CD4^+CD25^−) in the presence of proliferative stimuli. T cells need of two stimuli to proliferate: the first given by the recognition of antigen associated with MHC by T cell receptor (TCR) and the second one derived from co-stimulatory molecules such as CD28. In the absence of a specific antigen, TCR activation can take place with an antibody recognizing one of the composing subunits, CD3ε. In this assay, anti-CD3ε monoclonal antibody and CD4 T cell depleted splenocytes were used as activator stimuli. Therefore, the ability to reduce Teff cells proliferation by Tregs in the presence or absence of HDAC6 inhibitors was assessed.
Treg and Teff cells were separated using the Treg isolation kit based on magnetic beads separation technique (Miltenyi Biotec) through an initial negative selection and a final positive selection process.
Single cell suspension was obtained from spleen of C57BL/6 mice using a 70 μm strainer.
Cell suspension was treated with ACK buffer to lyse red blood cells and then centrifuged for 5 minutes at 300×g. After centrifugation, the cells were resuspended in PBS (Phosphate Buffered Saline, Gibco) and counted. Subsequently, splenocytes were resuspended in a buffer consisting of PBS, 0.5% BSA and 2 mM EDTA.
To proceed with the first step of Treg separation, CD4 negative cells were indirectly magnetically labeled with a cocktail of biotin-conjugated antibodies against CD8a, CD11b, CD45R, CD49b, Ter-119 and Anti-Biotin MicroBeads CD4+ cells were thus obtained by negative selection as flow-through of a magnetic MACS column.
Cells bound to microbeads were eluted and conserved for their use as antigen presenting cells (APC) in the proliferation assay.
In the second step of Treg purification, pre-enriched CD4+ cells were labelled with an R-phycoerythrin (PE)-conjugated anti-CD25 antibody that preferentially binds to Treg cells and magnetic beads coupled with an anti PE antibody. The cell suspension was then loaded on a column. The Teff cells pass through the column without binding (negative selection), while beads-bound Treg cells adhere through the magnetic beads (positive selection). Treg cells were then eluted from the column by buffer flow using a plunger. Treg and Teff cell purification is summarized in FIG. 6. • CD4− cells from first positive selection as APC • Treg CD4+ CD25+ as suppressor cells • Teff CD4+ CD25− as responder/proliferating cells
CD4^− cells were treated with mitomycin C (50 μg/ml, Sigma) for 30 min at 37° C. to prevent their proliferation They were then resuspended at a concentration of 4.0×10^5/50 μl in complete medium (RPMI, FBS10%, penicillin/streptomycin 1×, 50 μM beta mercaptoethanol). Teffs were labeled with carboxy fluorescein succinimidyl ester (CFSE) at a concentration of 2 μM in PBS at 37° C., and after 10 minutes incubation, the reaction was blocked with a 10% FBS PBS solution. CFSE labelling allows covalent modification of Teff cell to analyse their proliferation by fluorescence dilution. The labelled Teffs were then centrifuged and resuspended at the final concentration of 5.0×10^4/50 μl in complete medium. Finally, the Tregs obtained by purification were diluted to the final concentration of 5.0×10^4/50 μl in complete medium.
Then a co-culture of Teff (5.0×10^4), T CD4^− (4.0×10^5) was prepared and Treg cells in different ratios (1:1, 1:2, 1:4, 1:8 ratio Teff to Treg cells) were added thereto. The test compounds at different concentrations or DMSO vehicle were added to the cell suspension. Finally, an anti-CD3ε monoclonal antibody (Miltenyi Biotec) was added at a concentration of 1 μg/ml. Cells were plated in flat bottom 96-well plates and each condition was set up in a technical duplicate. […]

In a further assay the test system is human PBMCs. In words: Mixed Lymphocytes Reaction (MLR) with human PBMCs (IFN-γ, TNF-α, IL-6). Format: cell-based. Conditions: PBMC, 144 h, two-way MLR, 6 days, negative = induction; for inhibition at […]: 0.25 μM. The procedure: In order to study HDAC6 inhibitors ability to inhibit the activation of allogenic T CD4+ cells, a Mixed Lymphocytes Reaction (MLR or mixed lymphocyte culture, CLM) assay was performed. This is a reaction involving blast transformation of in vitro cultured lymphocytes in the presence of allogeneic lymphocytes. There is the so-called “two-way” reaction wherein the two lymphocyte populations stimulate each other to proliferate, and the so-called “one way” reaction, wherein the proliferation of one of the two populations is inhibited by mitomycin C or irradiation, these cells provide proliferation stimulus (stimulator) to the so-called “responder” cells.
Human peripheral blood mononuclear cells (PBMCs) used in MLR were obtained by Ficoll gradient separation from Buffy Coat of healthy donors.
We used a two-way MLR. The cells from the two donors were plated at 1:1 ratio (allogenic stimulation) to the final concentration of 2×10^5 per well in U-bottom 96 well plates in RPMI 1640 medium with 10% FBS and antibiotics. As a control we individually plated the cells from each donor (singenic stimulus). The experiment for each inhibitor was set in deduplicate for allogeneic stimuli and in quintuplicate for singenic stimuli. The cells were cultured for 6 days in an incubator at 37° C.
After 6 days the effect of the test compounds was evaluated by measuring the production of pro-inflammatory cytokines recognized to be characteristics of this assay.
For this purpose, the culture supernatant was harvested and used for IFN-γ, TNF-α and IL-6 inflammatory cytokine assay.
The JAK inhibitor ruxolitinib was used as the active reference compound in the test.
Values in the table indicate the inhibition percentages. Negative values indicate an induction.

Setting [2] is: read-out: MLR IFN-γ inhibition percentage.
[3] abbreviates: read-out: MLR IL-6 inhibition percentage.
The mark [4] stands for this setting: read-out: MLR TNF-α inhibition percentage.

At HDAC11, `O=C(NO)c1cc(F)c(Cn2nnc(-c3scc4c3OCCO4)n2)c(F)c1` [comp. 79, 4-[[5-(2,3-dihydrothieno[3,4-b][1,4]dioxin-5-yl)tetrazol-2-yl]methyl]-3,5-difluoro-benzenecarbohydroxamic acid] returned an IC50 of 659 nM. Also, the “RS (relative T-reg suppression, AUC drug/AUC control)” value in assay [1] (concentration 1 μM) stood at 1.7. In addition, the inhibition at 1 µM with human PBMCs (setting [2]) was 27.5%; with human PBMCs (setting [3]), 38.6%; in the assay on human PBMCs (setting [4]), 50.9%.
As to `COc1ccc(C(=O)N[C@@H](Cc2cscn2)c2nc(Cc3ccc(C(=O)NO)cc3)no2)cc1OC` [comp. 1, (S)—N-(1-(3-(4-(hydroxycarbamoyl)benzyl)-1,2,4-oxadiazol-5-yl)-2-(thiazol-4-yl)ethyl)-3,4-dimethoxybenzamide], at HDAC11, half-maximal inhibition (IC50) required 2680 nM.
At HDAC11, `O=C(NO)c1ccc(Cn2nnc(-c3ccccc3F)n2)cc1` [comp. 33, 4-[[5-(2-fluorophenyl)tetrazol-2-yl]methyl]benzenecarbohydroxamic acid] had an IC50 of 225 nM. For the same compound, in assay [1] (concentration 0.10 μM), the “RS (relative T-reg suppression, AUC drug/AUC control)” value worked out at 4.6.
As to `O=C(NO)c1ccc(Cn2nnc(-c3cccs3)n2)cc1` [comp. 50, 4-[[5-(2-thienyl)tetrazol-2-yl]methyl]benzenecarbohydroxamic acid], on HDAC11, the IC50 worked out at 245 nM.
`CN(C)S(=O)(=O)c1cccc(-c2nnn(Cc3ccc(C(=O)NO)cc3)n2)c1` [comp. 59, 4-[[5-[3-(dimethylsulfamoyl)phenyl]tetrazol-2-yl]methyl]benzenecarbohydroxamic acid] yielded an IC50 against HDAC11 of 515 nM. Besides, in assay [1] (concentration 0.5 μM), the “RS (relative T-reg suppression, AUC drug/AUC control)” value was 4.8.
For the compound `Cn1c(Sc2c(F)cc(C(=O)NO)cc2F)nnc1-c1cccs1` [comp. 17, 3,5-difluoro-N-hydroxy-4-((4-methyl-5-(thiophen-2-yl)-4H-1,2,4-triazol-3-yl)thio)benzamide], the IC50 at HDAC11 amounted to 2290 nM. Also, the inhibition at 1 µM in the assay with human PBMCs (setting [2]) came out at 41.6%; with human PBMCs (setting [3]) it was 31.2%; in the assay with human PBMCs (setting [4]), 39.4%.
Regarding `Cn1c(Sc2ccc(C(=O)NO)cc2)nnc1-c1cccs1` [comp. 10, N-hydroxy-4-((4-methyl-5-(thiophen-2-yl)-4H-1,2,4-triazol-3-yl)thio)benzamide], on HDAC11, the midpoint of inhibition, the IC50, lay at 981 nM. For the same compound, the figures for the inhibition at 1 µM with human PBMCs (setting [2]), with human PBMCs (setting [3]) and in the assay with human PBMCs (setting [4]) were 25.6%, 20.6% and 49.4%, respectively.
In turn, `Cn1c(Sc2c(F)cc(C(=O)NO)cc2F)nnc1C(c1ccccc1)c1ccccc1` [comp. 98, 4-[(5-benzhydryl-4-methyl-1,2,4-triazol-3-yl)sulfanyl]-3,5-difluoro-benzenecarbohydroxamic acid] showed an IC50 against HDAC11 of 2090 nM.
As to `O=C(NO)c1ccc(Cn2nnnc2-c2cccs2)cc1` [comp. 8, N-hydroxy-4-((5-(thiophen-2-yl)-1H-tetrazol-1-yl)methyl)benzamide], in the assay with human PBMCs (setting [2]), the inhibition at […] came out at 24.1%, the inhibition at 0.5 µM amounted to 35.3% and the inhibition at 1 µM was 15.7%. Further, in the assay on human PBMCs (setting [3]), the inhibition at […] was -33.1%, the inhibition at 0.5 µM is -13% and the inhibition at 1 µM was -1.5%. In addition, in the assay on human PBMCs (setting [4]), the inhibition at […] turned out to be 54.7%, the inhibition at 0.5 µM turned out to be 35.1% and the inhibition at 1 µM amounted to 28.1%.
`O=C(NO)c1ccc(Cc2nnc(-c3ccc(F)cc3F)o2)cc1` [comp. 58, 4-((5-(2,4-difluorophenyl)-1,3,4-oxadiazol-2-yl)methyl)-N-hydroxybenzamide] gave an IC50 on HDAC11 of 282 nM.
The same measure, in the same setting: with `CN(C)c1cccc(-c2nnc(Sc3c(F)cc(C(=O)NO)cc3F)n2C)c1` [comp. 80, 4-[[5-[3-(dimethylamino)phenyl]-4-methyl-1,2,4-triazol-3-yl]sulfanyl]-3,5-difluoro-benzenecarbohydroxamic acid] the figure was 2820 nM; with `Cn1c(Sc2c(F)cc(C(=O)NO)cc2F)nnc1-c1cccc2ccccc12` [comp. 2, 3,5-difluoro-N-hydroxy-4-((4-methyl-5-(naphthalen-1-yl)-4H-1,2,4-triazol-3-yl)thio)benzamide], 8050 nM.
The same measure, in the same setting: with `Nn1c(Sc2ccc(C(=O)NO)cc2)nnc1-c1ccc(OC(F)F)cc1` [comp. 28, 4-[[4-amino-5-[4-(difluoromethoxy)phenyl]-1,2,4-triazol-3-yl]sulfanyl]benzenecarbohydroxamic acid] the figure was 568 nM.
The same measure, in the same setting: with `O=C(NO)c1ccc(Cn2nnc(-c3ccc(C(F)(F)F)cc3)n2)cc1` [comp. 23, 4-[[5-[4-(trifluoromethyl)phenyl]tetrazol-2-yl]methyl]benzenecarbohydroxamic acid] the figure was 486 nM.
